Experimental data published in patent US20230135945A1, “Method for Measuring Modulation in the Activity of a G Protein-Coupled Receptor” (CISBIO BIOASSAYS, priority 2017, published 2023).
“Also recorded” adds a separate entry of the source. Where no end group is shown, it is not given here.

What was measured:
[1] = target: T1, Delta Opioid GPCR (Homo sapiens, UniProt P41143); assay: Activation test according to format 2A (TR-FRET, empty Galpha vs GTP/GTPγS-bound full form), HEK293 membranes; type: biochemical
T1 construct: purchased Perkin Elmer 6110549400UA (HEK293)
T1 sequence (P41143 whole entry): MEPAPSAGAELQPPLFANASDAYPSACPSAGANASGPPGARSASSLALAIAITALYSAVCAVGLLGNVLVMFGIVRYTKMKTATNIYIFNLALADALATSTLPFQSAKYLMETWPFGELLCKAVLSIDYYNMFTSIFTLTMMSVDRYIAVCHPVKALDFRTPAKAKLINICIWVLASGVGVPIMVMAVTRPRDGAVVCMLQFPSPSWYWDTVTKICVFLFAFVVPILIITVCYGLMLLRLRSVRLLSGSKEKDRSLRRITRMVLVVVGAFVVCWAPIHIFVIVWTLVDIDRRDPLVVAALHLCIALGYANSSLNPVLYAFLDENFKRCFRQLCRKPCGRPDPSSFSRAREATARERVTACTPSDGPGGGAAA

[2] = target: T1, Delta Opioid GPCR; assay: Activation test according to format 2B (TR-FRET, full Galpha bound to GTPγS vs empty form), membranes expressing Delta Opioid GPCR and Galphai protein; type: biochemical; conditions: for TR-FRET signal (HTRF ratio), inhibition of agonist activation by antagonist: SNC162 fixed 10 nM
Protocol: All reagents were diluted in TrisHCl 50 mM pH 7.4, MgCl2 10 mM, NaCl 10 mM, BSA 0.1% buffer. The membranes were prepared 4× to distribute 1 μg/well (except for other specifications). The GDP, GTP or GTPγS nucleotides and test compounds (agonists or antagonists) were pre-mixed and prepared 4× to obtain the final concentrations in the wells mentioned in the graphs. All anti-Galphai reagents used for detection were prepared 4× to target the following final concentrations in the following wells: sdAbs-d2 (50 nM); antibody SC13533-d2 (0.1 nM); antibody SC13533-Lumi4Tb (0.25 nM); antibody DSV36S-d2 (0.1 nM); antibody DSV36S-Lumi4Tb (0.25 nM); antibody DSV3S-d2 (10 nM); antibody DSV39S-d2 (10 nM); antibody DSV26S-Lumi4Tb (0.25 nM); peptide KB1753-Biotin (50 nM) in combination with streptavidin-XL665 (SA-XL) (25 nM) (pre-incubated 30 minutes at room temperature before distribution in plates). • Distribution of reagents in the 384-well plates: • Membranes expressing GPCR and G protein: 5 μL • Nucleotides (GDP or GTP or GTPγS) ±Test compounds (agonists and/or antagonists): 5 μL • Anti-Galphai-acceptor ligand (d2 or XL665): 5 μL • Anti-Galphai-donor ligand (Lumi4Tb): 5 μL
(§1) The plates were incubated at 21° C. for 3 h or 20 h and then the HTRF signal was measured on the PHERAstar reader (BMG Labtech) with the following configuration: • Module: HTRF (Excitation 337nm, Emission 665nm and 620nm) • Excitation: laser, 40 flashes • Reading window: delays: 60 μs—Integration: 400 μs
After activation of GPCR and Galpha protein by a GPCR agonist, the decrease in the proportion of the full Galpha protein form bound to GTP or bound to GTPγS (due to an increase in the proportion of the empty Galpha protein form) is specifically detected using two ligands labeled with RET partners. Activation of GPCR results in a decrease in the RET signal.
In a second step, the ability of a GPCR agonist to modulate the proportion of Galpha protein in empty form was tested with the same membranes and detection ligand pairs. HEK293 cell membranes expressing Delta Opioid GPCR and Galphai protein were incubated with GTPγS (10 nM) and GPCR agonist (SNC162) in increasing concentration. […] In a second condition, activation with a fixed concentration of GPCR agonist SNC162 (10 nM) was inhibited by an increasing concentration of GPCR antagonist (Naltrindole).
On the other hand, membranes (10 μg/wells) of HEK293 or CHO-K1 cells expressing the Delta Opioid GPCR and Galphai protein were incubated with GTPγS (100 nM) alone or in combination with a saturated fixed concentration (1 μM) of the receptor agonist (SNC162).
In a first condition, HEK293 cell membranes expressing Delta Opioid GPCR and Galphai protein were incubated with GTPγS (10 nM) and a GPCR agonist (SNC162) in increasing concentration.

[3] = target: T1, Delta Opioid GPCR; assay: Activation test according to format 1A (TR-FRET, empty Galpha vs GDP-bound full form), HEK293 membranes; type: biochemical; conditions: GDP 10 μM
Protocol: (§2) All reagents were diluted in TrisHCl 50 mM pH 7.4, MgCl2 10 mM, NaCl 10 mM, BSA 0.1% buffer. The membranes were prepared 4× to distribute 1 μg/well (except for other specifications). The GDP, GTP or GTPγS nucleotides and test compounds (agonists or antagonists) were pre-mixed and prepared 4× to obtain the final concentrations in the wells mentioned in the graphs. […]
as §1, with “400 μs […]” for “400 μs”

[4] = target: T2, 5HT1A (Homo sapiens, UniProt P08908); assay: Activation test format 2B on 5HT1A membranes (Example 7); type: biochemical; conditions: HEK293 membranes 10 μg/well, GTPγS 100 nM, agonist 1 μM (FIG. 10)
T2 construct: purchased Perkin Elmer RBHS1AM400UA; host or cells: HEK293-EBNA
T2 sequence (P08908 1-422): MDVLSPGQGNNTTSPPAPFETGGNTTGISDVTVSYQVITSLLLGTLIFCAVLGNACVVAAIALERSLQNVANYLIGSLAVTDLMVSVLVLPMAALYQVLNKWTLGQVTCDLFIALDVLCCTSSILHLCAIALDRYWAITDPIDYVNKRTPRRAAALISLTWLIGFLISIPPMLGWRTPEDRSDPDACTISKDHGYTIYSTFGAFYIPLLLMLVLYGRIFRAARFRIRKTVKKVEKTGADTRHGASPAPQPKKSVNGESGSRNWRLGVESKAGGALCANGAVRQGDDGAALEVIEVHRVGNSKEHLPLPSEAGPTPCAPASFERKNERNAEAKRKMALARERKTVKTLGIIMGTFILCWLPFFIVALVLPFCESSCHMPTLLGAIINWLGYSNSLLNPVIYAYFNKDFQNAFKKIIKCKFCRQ
Protocol: as §2, §1

[5] = system: Galpha protein; assay: Binding specificity of detection ligands for the forms of the Galpha protein
Protocol: In order to evaluate the selectivity of antibodies between the different forms of the Galphai1 protein (GDP-bound full form vs. GTPgS-bound full form vs. empty form), the test was performed in parallel on TST-Galphai1 protein conditions pre-incubated in the buffer containing either GDP at 1 μM, GTPgS at 1 μM or no nucleotide. The best hybridomas were then cloned with a limit dilution step to obtain hybridoma clones.
• the anti-Galphai antibody SC13533 was purchased from Santa Cruz Biotechnology (catalogue number SC13533). […] The antibodies were labeled with compatible fluorescent probes for TR-FRET detection (red—d2 acceptor or Lumi4Tb donor).

## Oc1ccc2c3c1O[C@H]1c4[nH]c5ccccc5c4C[C@@]4(O)[C@@H](C2)N(CC2CC2)CC[C@]314 [Naltrindole]
[1]; GTPγS 10 nM, SNC162 fixed 10 nM, antagonist in increasing concentration (FIG. 9B)
  TR-FRET signal (HTRF ratio), inhibition of agonist activation by antagonist: decrease in the TR-FRET signal
[2]; Example 9, format 2B, GTPγS 10 nM, antagonist in increasing concentration (FIG. 12B)
  TR-FRET signal (HTRF ratio), inhibition of agonist activation by antagonist: increase in the TR-FRET signal
[2]; Example 10, format 2B, GTPγS 10 nM, antagonist in increasing concentration, FIGS. 13B-18B
  TR-FRET signal (HTRF ratio), inhibition of agonist activation by antagonist: increase in the TR-FRET signal
[2]; format 2B, HEK293 membranes, GTPγS 10 nM, antagonist in increasing concentration, Examples 1-3
  TR-FRET signal (HTRF ratio), inhibition of agonist activation by antagonist: increase in the TR-FRET signal
[3]; SNC162 fixed 10 nM, antagonist in increasing concentration (FIG. 8B)
  TR-FRET signal (HTRF ratio), inhibition of agonist activation by antagonist: decrease in the TR-FRET signal

## C=CCN1C[C@H](C)N([C@@H](c2ccccc2)c2ccc(C(=O)N(CC)CC)cc2)C[C@H]1C [SNC162]
[1]; Example 8, GTP 50, 1000 or 20000 nM, agonist 1 μM, membranes 1 μg/well, amplitude lower than with GTPγS (FIG. 11)
  TR-FRET signal (HTRF ratio) generated by stimulation with the agonist: increase in the TR-FRET signal
[1]; Example 8, GTPγS 50, 1000 or 20000 nM, agonist 1 μM, membranes 1 μg/well (FIG. 11)
  TR-FRET signal (HTRF ratio) generated by stimulation with the agonist: increase in the TR-FRET signal
[1]; GTPγS 10 nM, agonist in increasing concentration, DSV39S-d2 + DSV26S-Lumi4Tb (FIG. 9B)
  TR-FRET signal (HTRF ratio) generated by stimulation with the agonist: increase in the TR-FRET signal
[2]; Example 7, CHO-K1 membranes 10 μg/well, GTPγS 100 nM, agonist 1 μM (FIG. 10)
  TR-FRET signal (HTRF ratio) generated by stimulation with the agonist: decrease in the TR-FRET signal
[2]; Example 7, HEK293 membranes 10 μg/well, GTPγS 100 nM, agonist 1 μM, KB1753-biotin/SA-XL + SC13533-Lumi4Tb (FIG. 10)
  TR-FRET signal (HTRF ratio) generated by stimulation with the receptor agonist: decrease in the TR-FRET signal
[2]; Example 9, format 2B, GTPγS 10 nM, agonist in increasing concentration, DSV36S-Lumi4Tb/SC13533-d2 (FIG. 12B)
  TR-FRET signal (HTRF ratio) generated by stimulation with the agonist: decrease in the TR-FRET signal
[2]; Example 10, format 2B, GTPγS 10 nM, agonist in increasing concentration, sdAb-d2 ligand pairs (FIGS. 13B-19B)
  TR-FRET signal (HTRF ratio) generated by stimulation with the agonist: decrease in the TR-FRET signal
[2]; format 2B, HEK293 membranes, GTPγS 10 nM, agonist in increasing concentration, detection ligand pairs of Examples 1-4 (FIGS. 4B-7B)
  TR-FRET signal (HTRF ratio) generated by stimulation with the agonist: decrease in the TR-FRET signal
[3]; agonist in increasing concentration, DSV39S-d2 + DSV26S-Lumi4Tb (FIG. 8B)
  TR-FRET signal (HTRF ratio) generated by stimulation with the agonist: increase in the TR-FRET signal

## NCCc1c[nH]c2ccc(O)cc12 [serotonin]
[4]
  TR-FRET signal (HTRF ratio) generated by stimulation with the receptor agonist: decrease in the TR-FRET signal

## Ser-Ser-Arg-Gly-Tyr-Tyr-His-Gly-Ile-Trp-Val-Gly-Glu-Glu-Gly-Arg-Leu-Ser-Arg (SSRGYYHGIWVGEEGRLSR; also: biotinylated, place not given here) [KB1753, biotinylated form generated by Cisbio Bioassays]
[5]
  Form of the Galpha protein specifically bound (empty, GDP-bound, GTP/non-hydrolyzable GTP-bound): specifically binds the form of the Galpha GTP or GTP protein that is non-hydrolyzable or slowly hydrolyzable relative to the forms of the empty Galpha protein and GDP; also recorded: specifically recognizes the full Galpha protein bound to GTP

B1: DSV36S: anti-Galphai antibody generated by Cisbio Bioassays (antibody, V domains shown)
VH: EVQLQQSGAELVRPGALVKLSCKASGFNIKDYYMHWVKQRPEQGLEWIGWIDPENGNTIYDPKFQGKASITADTSSNTAYLQLSSLTSEDTAVYYCTRGGGYYSDWYFDVWGAGTTVTVSS
VL: QIVLTQSPAIMSASPGEKVTMTCSASSSVSYMHWYQQKSGTSPKRWIYDTSKLASGVPARFSGSGSGTSYSLTISSMEAEDAATYYCQQWSSNPPITFGAGTKLELK
[5]
  Form of the Galpha protein specifically bound (empty, GDP-bound, GTP/non-hydrolyzable GTP-bound): specifically binds the form of the Galpha GTP or GTP protein that is non-hydrolyzable or slowly hydrolyzable relative to the forms of the empty Galpha protein and GDP
